Where two headings read alike, the source gives them in different places.
Assays:
[1] = target: T1, recombinant human B1 receptors (Homo sapiens, UniProt P46663); assay: Functional assay: antagonist potency by cytosolic calcium measurement (plate reader fluorimeter) in CHO-B1 cells, agonist LysDABK; assay type: cell-based
T1 construct: host or cells: CHO (CHO-B1)
T1 sequence (P46663 1-353): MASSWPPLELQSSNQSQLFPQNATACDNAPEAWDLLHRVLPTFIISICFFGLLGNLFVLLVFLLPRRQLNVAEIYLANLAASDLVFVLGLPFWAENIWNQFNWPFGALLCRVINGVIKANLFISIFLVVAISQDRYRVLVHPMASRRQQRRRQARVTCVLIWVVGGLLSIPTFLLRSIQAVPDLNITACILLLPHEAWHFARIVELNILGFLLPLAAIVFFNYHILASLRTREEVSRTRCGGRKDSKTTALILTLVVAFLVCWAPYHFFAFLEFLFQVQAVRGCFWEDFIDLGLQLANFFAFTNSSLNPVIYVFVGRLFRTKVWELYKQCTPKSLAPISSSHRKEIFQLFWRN
In short: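 IC50 is the concentration giving half-maximal inhibition of the LysDABK (EC80) calcium response, fitted from at least three experiments. CHO cells stably expressing human B1 were dye-loaded, exposed to compound for 20-25 min, then read by fluo-4 fluorescence (ΔF/F) at 37 °C.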

[2] = target: T2, human recombinant bradykinin B1 receptor (Homo sapiens, UniProt P46663); assay: Human recombinant bradykinin B1 receptor competitive radioligand binding
T2 construct: host or cells: CHO cells, clone hB1-A5
T2 sequence (P46663 1-353): T1 sequence (P46663 1-353)
In short: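 Membranes from CHO cells expressing hB1 (20 μg protein/tube) incubated 15 min at 25° C. with [3,4-prolyl-3,4-^3H(N)]-[Des-Arg^10] Kallidin; nonspecific binding defined with 10 μM Lys-des-Arg^9-Bradykinin. Bound label collected by filtration and counted. IC50 from ≥7-point curves in triplicate; Ki by Cheng-Prusoff.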

[3] = CHO-B1 cells, inhibition of LysDABK (EC80)-evoked [Ca2+]i elevation, read-out: B1 func.
[4] = hB1 expressed in CHO cells, [3H]-[Des-Arg10] Kallidin radioligand, read-out: B1 binding

SMILES	IC50 [1, 3] [nM]	Ki [2, 4] [nM]	IC50 ([1]; reference compounds, functional test, measured by the applicant, read-out: IC50) [nM]	Ki ([2]; reference compounds, binding test, measured by the applicant, read-out: Ki) [nM]
COc1cc(C(=O)NC2(C(=O)NCc3ccc(-n4c(-c5noc(C)n5)c(Cl)c5cc(F)ccc54)cc3F)CC2)on1 [Example 197, 3-Methoxy-isoxazole-5-carboxylic acid (1-{4-[3-chloro-5-fluoro-2-(5-methyl-[1,2,4]oxadiazol-3-yl)-indol-1-yl]-2-fluoro-benzylcarbamoyl}-cyclopropyl)-amide]	< 20	< 20		
Cc1nc(-c2c(Cl)c3ccccc3n2-c2ccc(CNC(=O)C3(NC(=O)c4csnn4)CC3)cc2)no1 [Example 174, [1,2,3]Thiadiazole-4-carboxylic acid (1-{4-[3-chloro-2-(5-methyl-[1,2,4]oxadiazol-3-yl)-indol-1-yl]-benzylcarbamoyl}-cyclopropyl)-amide]	< 20	< 20		
COc1cc(C(=O)NC2(C(=O)NCc3ccc(-n4c(-c5noc(C)n5)c(Cl)c5cc(F)ccc54)cc3)CC2)on1 [Example 67, 3-Methoxy-isoxazole-5-carboxylic acid (1-{4-[3-chloro-5-fluoro-2-(5-methyl-[1,2,4]oxadiazol-3-yl)-indol-1-yl]-benzylcarbamoyl}-cyclopropyl)-amide]	< 20	< 20		
Cc1nc(-c2cc3ccccc3n2-c2ccc(CNC(=O)C3(NC(=O)c4cncc(C(F)(F)F)c4)CC3)cc2)no1 [Example 82, N-(1-{4-[2-(5-Methyl-[1,2,4]oxadiazol-3-yl)-indol-1-yl]-benzylcarbamoyl}-cyclopropyl)-5-trifluoromethyl-nicotinamide]	< 20	< 20		
COc1cc(C(=O)NC2(C(=O)NCc3ccc(-n4c(-c5nnn(C)n5)c(Cl)c5cc(F)ccc54)cc3)CC2)on1 [Example 13, 3-Methoxy-isoxazole-5-carboxylic acid (1-{4-[3-chloro-5-fluoro-2-(2-methyl-2H-tetrazol-5-yl)-indol-1-yl]-benzylcarbamoyl}-cyclopropyl)-amide]	< 20	< 20		
Cc1nc(-c2c(Cl)c3ccccc3n2-c2ccc(CNC(=O)C3(NC(=O)c4cc(F)cc(C(F)(F)F)c4)CC3)cc2)no1 [Example 94, N-(1-{4-[3-Chloro-2-(5-methyl-[1,2,4]oxadiazol-3-yl)-indol-1-yl]-benzylcarbamoyl}-cyclopropyl)-3-fluoro-5-trifluoromethyl-benzamide]	< 20	< 20		
COC(=O)c1c(Cl)c2ccccc2n1-c1ccc(CNC(=O)C2(NC(=O)C(F)(F)F)CC2)cc1 [Example 10, 3-Chloro-1-[4-({[1-(2,2,2-trifluoro-acetylamino)-cyclopropanecarbonyl]-amino}-methyl)-phenyl]-1H-indole-2-carboxylic acid methyl ester]	< 20	< 20		
Cc1nc(-c2c(Cl)c3ccccc3n2-c2ccc(CNC(=O)C3(NC(=O)c4cncc(C(F)(F)F)c4)CC3)cc2)no1 [Example 180, N-(1-{4-[3-Chloro-2-(5-methyl-[1,2,4]oxadiazol-3-yl)-indol-1-yl]-benzylcarbamoyl}-cyclopropyl)-5-trifluoromethyl-nicotinamide]	< 20	< 20		
Cn1nnnc1-c1c(Cl)c2ccccc2n1-c1ccc(CNC(=O)C2(NC(=O)C(F)(F)F)CC2)cc1 [Example 8, 1-(2,2,2-Trifluoro-acetylamino)-cyclopropanecarboxylic acid 4-[3-chloro-2-(1-methyl-1H-tetrazol-5-yl)-indol-1-yl]-benzylamide]	< 20	< 20		
Cc1nc(-c2cc3cc(F)ccc3n2-c2ccc(CNC(=O)C3(NC(=O)c4cccnc4F)CC3)cc2)no1 [Example 120, 2-Fluoro-N-(1-{4-[5-fluoro-2-(5-methyl-[1,2,4]oxadiazol-3-yl)-indol-1-yl]-benzylcarbamoyl}-cyclopropyl)-nicotinamide]	< 20	< 20		
Cc1nc(-c2c(Cl)c3cc(Cl)ccc3n2-c2ccc(CNC(=O)C3(NC(=O)c4cccc(F)c4)CC3)cc2)no1 [Example 71, N-(1-{4-[3,5-Dichloro-2-(5-methyl-[1,2,4]oxadiazol-3-yl)-indol-1-yl]-benzylcarbamoyl}-cyclopropyl)-3-fluoro-benzamide]	< 20	< 20		
Cc1noc(-c2c(Cl)c3ccccc3n2-c2ccc(CNC(=O)C3(NC(=O)c4cncc(C(F)(F)F)c4)CC3)cc2)n1 [Example 115, N-(1-{4-[3-Chloro-2-(3-methyl-[1,2,4]oxadiazol-5-yl)-indol-1-yl]-benzylcarbamoyl}-cyclopropyl)-5-trifluoromethyl-nicotinamide]	< 20	< 20		
Cc1nc(-c2c(Cl)c3ccccc3n2-c2ccc(CNC(=O)C3(NC(=O)c4cccnc4F)CC3)cc2)no1 [Example 95, N-(1-{4-[3-Chloro-2-(5-methyl-[1,2,4]oxadiazol-3-yl)-indol-1-yl]-benzylcarbamoyl}-cyclopropyl)-2-fluoro-nicotinamide]	< 20	< 20		
CCCN1C(=O)[C@H](NC(=O)Nc2ccc(N3CCC(N4CCCCC4)CC3)cc2)N=C(c2ccc(C)cc2)c2ccccc21 [N-[4-(,4′-bipiperidin)-1′-ylphenyl]-N′-[(3R)-2,3-dihydro-5-(4-methyl-phenyl)-2-oxo-1-propyl-1H-1,4-benzodiazepin-3-yl]-urea, reference compound]			64.5	13.4
Cc1nc(-c2c(Cl)c3ccccc3n2-c2ccc(CNC(=O)C3(NC(=O)c4cnn(C)c4)CC3)cc2)no1 [Example 121, 1-Methyl-1H-pyrazole-4-carboxylic acid (1-{4-[3-chloro-2-(5-methyl-[1,2,4]oxadiazol-3-yl)-indol-1-yl]-benzylcarbamoyl}-cyclopropyl)-amide]	20 to 100	< 20		
Cc1noc(-c2cc3cc(F)ccc3n2-c2ccc(CNC(=O)C3(NC(=O)CC(F)(F)F)CC3)cc2)n1 [Example 101, 1-(3,3,3-Trifluoro-propionylamino)-cyclopropanecarboxylic acid 4-[5-fluoro-2-(3-methyl-[1,2,4]oxadiazol-5-yl)-indol-1-yl]-benzylamide]	< 20	< 20		
Cn1nnc(-c2c(Cl)c3ccccc3n2-c2ccc(CNC(=O)C3(NC(=O)c4ccnc(F)c4)CC3)cc2)n1 [Example 28, N-(1-{4-[3-chloro-2-(2-methyl-2H-tetrazol-5-yl)-indol-1-yl]-benzylcarbamoyl}-cyclopropyl)-2-fluoro-isonicotinamide]	< 20	< 20		
Cn1nnc(-c2c(Cl)c3ccccc3n2-c2ccc(CNC(=O)C3(NC(=O)c4cccnc4F)CC3)cc2)n1 [Example 119, N-(1-{4-[3-Chloro-2-(2-methyl-2H-tetrazol-5-yl)-indol-1-yl]-benzylcarbamoyl}-cyclopropyl)-2-fluoro-nicotinamide]	< 20	< 20		
Cc1nc(-c2c(Cl)c3ccccc3n2-c2ccc(CNC(=O)C3(NC(=O)c4cccnc4C)CC3)cc2)no1 [Example 155, N-(1-{4-[3-Chloro-2-(5-methyl-[1,2,4]oxadiazol-3-yl)-indol-1-yl]-benzylcarbamoyl}-cyclopropyl)-2-methyl-nicotinamide]	20 to 100	20 to 100		
